Consider one substance from PMC12348660, “Synthesis, Characterization, HSA/DNA Binding, and Cytotoxic Activity of [RuCl2(η^6-p-cymene)(bph-κN)] Complex” (Molecules, 2025).

The experiment has as its target T1, human serum albumin (HSA) (Homo sapiens, UniProt P02768).
T1 construct: gene ALB
The experiment in a line: intrinsic tryptophan fluorescence quenching titration (Stern-Volmer, double-log), […]-310 K. The format is binding. To be noted: read-out: Kb [M^-1] (converted).

T1 sequence (P02768 25-609): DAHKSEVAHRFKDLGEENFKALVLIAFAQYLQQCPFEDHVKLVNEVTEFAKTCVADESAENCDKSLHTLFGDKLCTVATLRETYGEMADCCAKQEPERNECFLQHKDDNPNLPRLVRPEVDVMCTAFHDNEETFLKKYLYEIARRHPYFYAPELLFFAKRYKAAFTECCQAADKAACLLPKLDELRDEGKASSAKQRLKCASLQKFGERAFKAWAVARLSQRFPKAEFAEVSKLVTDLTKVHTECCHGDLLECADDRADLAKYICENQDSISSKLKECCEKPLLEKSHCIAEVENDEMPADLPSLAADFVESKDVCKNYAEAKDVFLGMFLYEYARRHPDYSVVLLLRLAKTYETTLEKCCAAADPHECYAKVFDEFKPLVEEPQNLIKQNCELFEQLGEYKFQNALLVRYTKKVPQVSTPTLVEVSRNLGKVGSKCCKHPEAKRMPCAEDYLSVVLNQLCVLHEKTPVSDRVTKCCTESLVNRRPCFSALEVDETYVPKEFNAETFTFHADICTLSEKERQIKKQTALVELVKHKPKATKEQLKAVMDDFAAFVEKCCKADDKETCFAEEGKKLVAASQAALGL

Take “dichlorido((diphenylmethylidene)hydrazine-κN)(η^6-p-cymene)ruthenium(II) [compound 1]”: the Kd was 60.6 µM.
